Patent US20250324971A1, “HERBICIDAL DERIVATIVES” (SYNGENTA CROP PROTECTION AG, priority 2022, published 2025)

Key:
Assay type in all cases: in vivo
Setaria faberi (SETFA) [1] = test: Pre-Emergence Test (herbicidal, glasshouse pots); details: evaluated after 13 days, five-point scale
[2] = system: Ipomoea hederacea (IPOHE); test: Pre-Emergence Test (herbicidal, glasshouse pots); details: evaluated after 13 days, five-point scale
[3] = system: Echinochloa crus-galli (ECHCG); test: Pre-Emergence Test (herbicidal, glasshouse pots); details: evaluated after 13 days, five-point scale
[4] = system: Amaranthus retoflexus (AMARE); test: Pre-Emergence Test (herbicidal, glasshouse pots); details: evaluated after 13 days, five-point scale
Zea mays (ZEAMX) [5] = test: Pre-Emergence Test (herbicidal, glasshouse pots); details: evaluated after 13 days, five-point scale
[6] = system: Amaranthus palmeri (AMAPA); test: Pre-Emergence Test (herbicidal, glasshouse pots); details: evaluated after 13 days, five-point scale
[7] = system: Amaranthus palmeri (AMAPA); test: Post-Emergence Test (herbicidal, glasshouse pots); details: evaluated after 13 days
Procedure, shortened: (§1)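 Pots in glasshouse (24/16 °C, 14 h light, 65% RH), sprayed with a.i. in acetone/water 50:50 + 0.5% Tween 20; rate in g/ha. Watered twice daily; % damage read at 13 d, scored 5=81-100%, 4=61-80%, 3=41-60%, 2=21-40%, 1=0-20%.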

[8] = system: Amaranthus retoflexus (AMARE); test: Post-Emergence Test (herbicidal, glasshouse pots); details: evaluated after 13 days
Procedure, shortened: as §1

[9] = system: Echinochloa crus-galli (ECHCG); test: Post-Emergence Test (herbicidal, glasshouse pots); details: evaluated after 13 days
Procedure, shortened: as §1

[10] = system: Ipomoea hederacea (IPOHE); test: Post-Emergence Test (herbicidal, glasshouse pots); details: evaluated after 13 days
Procedure, shortened: as §1

Setaria faberi (SETFA) [11] = test: Post-Emergence Test (herbicidal, glasshouse pots); details: evaluated after 13 days
Procedure, shortened: as §1

Zea mays (ZEAMX) [12] = test: Post-Emergence Test (herbicidal, glasshouse pots); details: evaluated after 13 days
Procedure, shortened: as §1

Structure (SMILES)	percentage damage caused to the plant, SETFA (Setaria faberi (SETFA) [1]; rate 250 g/ha)	percentage damage caused to the plant, IPHOE ([2]; rate 250 g/ha)	percentage damage caused to the plant, ECHCG ([3]; rate 250 g/ha)	percentage damage caused to the plant, AMARE ([4]; rate 250 g/ha)	percentage damage caused to the plant, ZEAMX (Zea mays (ZEAMX) [5]; rate 250 g/ha)	percentage damage caused to the plant, AMAPA ([6]; rate 250 g/ha)	Post-Emergence Test AMAPA percentage damage (five-point scale) ([7]; rate 250 g/ha)	Post-Emergence Test AMARE percentage damage (five-point scale) ([8]; rate 250 g/ha)	Post-Emergence Test ECHCG percentage damage (five-point scale) ([9]; rate 250 g/ha)	Post-Emergence Test IPHOE percentage damage (five-point scale) ([10]; rate 250 g/ha)	Post-Emergence Test SETFA percentage damage (five-point scale) (Setaria faberi (SETFA) [11]; rate 250 g/ha)	Post-Emergence Test ZEAMX percentage damage (five-point scale) (Zea mays (ZEAMX) [12]; rate 250 g/ha)	also measured
CCn1c(Oc2cc(Cl)n(C)n2)cc(=O)c(C(=O)O)c1-c1ccc(Cl)c(Cl)c1 [Compound 60, 6-(5-chloro-1-methyl-pyrazol-3-yl)oxy-2-(3,4-dichlorophenyl)-1-ethyl-4-oxo-pyridine-3-carboxylic acid]	3 (3=41-60%)	4 (4=61-80%)	1 (1=0-20%)	2 (2=21-40%)	0	0	1 (1=0-20%)	4 (4=61-80%)	1 (1=0-20%)	4 (4=61-80%)	1 (1=0-20%)	3 (3=41-60%)	
CCn1c(Oc2ccc(S(C)(=O)=O)cc2)cc(=O)c(C(=O)O)c1-c1ccc(Cl)c(Cl)c1 [Compound 40, 2-(3,4-dichlorophenyl)-1-ethyl-6-(4-methylsulfonyl-phenoxy)-4-oxo-pyridine-3-carboxylic acid]	2 (2=21-40%)	3 (3=41-60%)	0	1 (1=0-20%)	0	1 (1=0-20%)	2 (2=21-40%)	2 (2=21-40%)	1 (1=0-20%)	4 (4=61-80%)	2 (2=21-40%)	1 (1=0-20%)	
CCn1c(Oc2ccc(F)c(F)c2)cc(=O)c(C(=O)O)c1-c1ccc(Cl)c(Cl)c1 [Compound 28, 2-(3,4-dichlorophenyl)-6-(3,4-difluorophenoxy)-1-ethyl-4-oxo-pyridine-3-carboxylic acid]													percentage damage caused to the plant, SETFA (Setaria faberi (SETFA) [1]; rate 1000 g/ha): 5 (5=81-100%); percentage damage caused to the plant, IPHOE ([2]; rate 1000 g/ha): 4 (4=61-80%); percentage damage caused to the plant, ECHCG ([3]; rate 1000 g/ha): 4 (4=61-80%); percentage damage caused to the plant, AMARE ([4]; rate 1000 g/ha): 5 (5=81-100%); percentage damage caused to the plant, ZEAMX (Zea mays (ZEAMX) [5]; rate 1000 g/ha): 4 (4=61-80%); percentage damage caused to the plant, AMAPA ([6]; rate 1000 g/ha): 4 (4=61-80%); Post-Emergence Test AMAPA percentage damage (five-point scale) ([7]; rate 1000 g/ha): 4 (4=61-80%); Post-Emergence Test AMARE percentage damage (five-point scale) ([8]; rate 1000 g/ha): 4 (4=61-80%); Post-Emergence Test ECHCG percentage damage (five-point scale) ([9]; rate 1000 g/ha): 4 (4=61-80%); Post-Emergence Test IPHOE percentage damage (five-point scale) ([10]; rate 1000 g/ha): 3 (3=41-60%); Post-Emergence Test SETFA percentage damage (five-point scale) (Setaria faberi (SETFA) [11]; rate 1000 g/ha): 4 (4=61-80%); Post-Emergence Test ZEAMX percentage damage (five-point scale) (Zea mays (ZEAMX) [12]; rate 1000 g/ha): 4 (4=61-80%)
CCn1c(Oc2ccc(C(F)(F)F)cc2)cc(=O)c(C(=O)O)c1-c1ccc(Cl)c(Cl)c1 [Compound 27, 2-(3,4-dichlorophenyl)-1-ethyl-4-oxo-6-[4-(trifluoromethyl)phenoxy]pyridine-3-carboxylic acid]	4 (4=61-80%)	0	1 (1=0-20%)	1 (1=0-20%)	0	1 (1=0-20%)	4 (4=61-80%)	4 (4=61-80%)	4 (4=61-80%)	4 (4=61-80%)	5 (5=81-100%)	2 (2=21-40%)	
CCn1c(Oc2ccc(F)nc2)cc(=O)c(C(=O)O)c1-c1ccc(Cl)c(Cl)c1 [Compound 52, 2-(3,4-dichlorophenyl)-1-ethyl-6-[(6-fluoro-3-pyridyl)oxy]-4-oxo-pyridine-3-carboxylic acid]	5 (5=81-100%)	3 (3=41-60%)	4 (4=61-80%)	3 (3=41-60%)	5 (5=81-100%)	2 (2=21-40%)	1 (1=0-20%)	4 (4=61-80%)	4 (4=61-80%)	4 (4=61-80%)	4 (4=61-80%)	4 (4=61-80%)	
